Data from patent publication EP4603105A1, “PHARMACEUTICAL COMPOSITION CONTAINING CYCLIC COMPOUND HAVING SELECTIVE KRAS INHIBITORY EFFECT AGAINST HRAS AND NRAS” (CHUGAI SEIYAKU KABUSHIKI KAISHA, priority 2022, dated 2024).
Like-named read-outs stand apart in the source and are kept apart here.

Columns and labels:
[1] = target: GDP-bound KRAS wild-type protein (Homo sapiens, UniProt P01116); experiment: Binding to KRAS by surface plasmon resonance (SPR), dissociation constant KD
Method in brief: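 Running buffer contained 10 µM GDP and 10 mM MgCl2 to keep RAS in the GDP state, with 4% DMSO at pH 7.4. Compounds were flowed at 100 µL/min in 75 s steps of rising concentration over captured biotin-Avi RAS at 30°C. Sensorgrams were fitted 1:1 for KD.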

[2] = target: GDP-bound NRAS wild-type protein (Homo sapiens, UniProt P01111); experiment: Binding to NRAS by surface plasmon resonance (SPR), KD and KD ratio to KRAS
Sequence of GDP-bound NRAS wild-type protein (P01111 whole entry): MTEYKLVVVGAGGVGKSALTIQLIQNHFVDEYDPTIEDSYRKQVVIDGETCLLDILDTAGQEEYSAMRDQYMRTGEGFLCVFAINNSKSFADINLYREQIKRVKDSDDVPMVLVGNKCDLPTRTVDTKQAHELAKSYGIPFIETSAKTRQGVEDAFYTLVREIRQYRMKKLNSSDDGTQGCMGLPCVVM
Method in brief: (§1)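 GDP-loaded biotinylated Avi-tag RAS proteins (E. coli-expressed) captured on a Biotin CAPture chip at ~100–300 RU; single-cycle kinetics at 30°C, 100 µL/min, 75 s injections of rising compound concentrations. HBS pH 7.4 running buffer with 1 mM DTT, 10 mM MgCl2, 10 µM GDP, 4% DMSO. KD from 1:1 binding fit.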

[3] = target: HRAS wild-type protein (Homo sapiens, UniProt P01112); experiment: Binding to HRAS by surface plasmon resonance (SPR), KD and KD ratio to KRAS
Sequence of HRAS wild-type protein (P01112 whole entry): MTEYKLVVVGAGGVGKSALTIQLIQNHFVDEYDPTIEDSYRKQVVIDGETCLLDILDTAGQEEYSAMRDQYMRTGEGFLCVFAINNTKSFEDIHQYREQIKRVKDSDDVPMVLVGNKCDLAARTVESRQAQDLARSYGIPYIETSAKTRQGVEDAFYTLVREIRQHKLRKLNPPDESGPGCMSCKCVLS
Method in brief: as §1

[4] = tested on: human lung cancer strain NCI-H441; experiment: NCI-H441 cell proliferation inhibitory activity (CellTiter-Glo, 4 days); assay type: cell-based; conditions: read-out: NCl-H441 IC50
Method in brief: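 Readout: […] after the ATP-based reagent. Compound: serial dilutions in dimethyl sulfoxide.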

[5] = Single Cycle Kinetics, 1:1 binding model
[6] = ratio of KD with respect to GDP-bound NRAS wild-type protein to KD with respect to KRAS
[7] = ratio of KD with respect to HRAS wild-type protein to KD with respect to KRAS
[8] = 50% proliferation inhibitory concentration, four days
[9] = ratio of KD for GDP-bound NRAS wild-type protein to KD for KRAS
[10] = ratio of KD for HRAS wild-type protein to KD for KRAS

Sequence of GDP-bound KRAS wild-type protein (P01116 1-188 isoform P01116-2): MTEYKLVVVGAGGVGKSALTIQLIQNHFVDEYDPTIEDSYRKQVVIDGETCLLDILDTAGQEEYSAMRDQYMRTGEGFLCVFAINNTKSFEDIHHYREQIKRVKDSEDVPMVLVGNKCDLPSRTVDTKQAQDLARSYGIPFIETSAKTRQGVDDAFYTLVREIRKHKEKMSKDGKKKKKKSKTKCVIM

Row | SMILES | Kd [1, 5] [nM] | IC50 [4, 8] [nM] | Kd ([1]; 1:1 binding model) [nM] | IC50 ([4]; NCI-H441 cells, 4 days) [nM] | Kd ([1]; Single Cycle Kinetics) [nM] | NRAS /KRAS [2, 6] | HRAS /KRAS [3, 7] | NRAS /KRAS [2, 9] | HRAS /KRAS [3, 10]
1 | CCCOC[C@H]1C(=O)N[C@@H]([C@@H](C)CC)C(=O)N(C)CC(=O)N(C)[C@H]2C/C=C\CCN(C2=O)[C@@H](CC2CCC(F)(F)CC2)C(=O)N(C)CC(=O)N[C@@H](CCc2cc(F)c(C(F)(F)F)c(F)c2)C(=O)N2C[C@@H](C)C[C@H]2C(=O)NC2(CC(C)(C)C2)C(=O)N(C)[C@@H](C(CC)CC)C(=O)N(C)[C@H](C(=O)N(C)C)CC(=O)N1C [PP2490] | – | – | 1.7 | 162 | – | – | – | AA (a compound having 20 or more is denoted as AA) | A (a compound having 10 or more and less than 20 is denoted as A)
2 | CCC[C@H]1C(=O)N[C@@H]([C@@H](C)CC)C(=O)N2CCC[C@H]2C(=O)N(C)[C@H]2C/C=C\CCN(C2=O)[C@@H](Cc2ccc(C(F)(F)F)cc2)C(=O)N(C)CC(=O)N[C@@H](CCc2ccc(C(F)(F)F)c(OC)c2)C(=O)N2CC[C@H](OC)[C@H]2C(=O)N(C)C2(CCC2)C(=O)N(C)[C@@H](C2CCCC2)C(=O)N(C)[C@H](C(=O)N(C)C)CC(=O)N1C [PP3241] | – | – | – | 10.5 | 0.31 | – | – | A (a compound having 10 or more and less than 20 is denoted as A) | B (a compound having 3 or more and less than 10 is denoted as B)

The next lines start with results.

Row | Kd [1, 5] [nM] | IC50 [4, 8] [nM] | Kd ([1]; 1:1 binding model) [nM] | IC50 ([4]; NCI-H441 cells, 4 days) [nM] | Kd ([1]; Single Cycle Kinetics) [nM] | SMILES | NRAS /KRAS [2, 6] | HRAS /KRAS [3, 7] | NRAS /KRAS [2, 9] | HRAS /KRAS [3, 10]
3 | 0.12 | 27.5 | – | – | – | CC[C@H](C)[C@@H]1NC(=O)[C@H](CC)N(C)C(=O)C[C@@H](C(=O)N(C)C)N(C)C(=O)[C@H](C2CCCC2)N(C)C(=O)C2(CCC2)NC(=O)[C@@H]2CC(F)(F)CN2C(=O)[C@H](CCc2cc(F)c(C(F)(F)F)c(F)c2)NC(=O)CN(C)C(=O)[C@H](CC2CCCCC2)N2CC/C=C\C[C@@H](C2=O)N(C)C(=O)CN(C)C1=O [PP1462] | A (a compound having 10 or more and less than 20 is denoted as A) | A (a compound having 10 or more and less than 20 is denoted as A) | – | –
4 | – | – | 2.8 | 129 | – | CCC[C@H]1C(=O)N[C@@H]([C@@H](C)CC)C(=O)N(C2CC2)CC(=O)N(C)[C@H]2C/C=C\CCN(C2=O)[C@@H](CC2CCC(F)(F)CC2)C(=O)N(C)CC(=O)N[C@@H](CCc2ccc(Cl)c(Cl)c2)C(=O)N2C[C@H](OC(C)C)C[C@H]2C(=O)NC2(CC(C)(C)C2)C(=O)N(C)[C@@H](C2CCCC2)C(=O)N(C)[C@H](C(=O)N(C)C)CC(=O)N1C [PP2521] | – | – | A (a compound having 10 or more and less than 20 is denoted as A) | A (a compound having 10 or more and less than 20 is denoted as A)
5 | 0.49 | 140 | – | – | – | CCO[C@@H]1C[C@H]2C(=O)NC3(CCC3)C(=O)N(C)[C@@H](C3CCCC3)C(=O)N(C)[C@H](C(=O)N(C)C)CC(=O)N(C)[C@@H](CC3CC3)C(=O)N[C@@H]([C@@H](C)CC)C(=O)N(C)CC(=O)N(C)[C@H]3C/C=C\CCN(C3=O)[C@@H](Cc3ccc(F)cc3)C(=O)N(C)CC(=O)N[C@@H](CCc3cc(F)c(Cl)c(F)c3)C(=O)N2C1 [PP1479] | A (a compound having 10 or more and less than 20 is denoted as A) | B (a compound having 3 or more and less than 10 is denoted as B) | – | –
6 | 0.074 | 4.4 | – | – | – | CCO[C@@H]1C[C@H]2C(=O)NC3(CCC3)C(=O)N(C)[C@@H](C3CCCC3)C(=O)N(C)[C@H](C(=O)N(C)C)CC(=O)N(C)[C@@H](CC(C)C)C(=O)N[C@@H]([C@@H](C)CC)C(=O)N(C)CC(=O)N(C)[C@H]3C/C=C\CCN(C3=O)[C@@H](Cc3ccc(C)cc3)C(=O)N(C)CC(=O)N[C@@H](CCc3cc(F)c(C(F)(F)F)c(F)c3)C(=O)N2C1 [PP1414] | A (a compound having 10 or more and less than 20 is denoted as A) | B (a compound having 3 or more and less than 10 is denoted as B) | – | –
